Measurements taken from US7816371B2, “Bicycloheteroaryl compounds as P2X7 modulators and uses thereof” (Renovis, Inc., priority 2006, dated 2010).

These molecules were tested against T1, P2X7 receptor (Homo sapiens, UniProt Q99572) (assay: IL-1β release assay in differentiated THP-1 cells stimulated with BzATP (Example 9); % inhibition and IC50). Settings: 0.3 μM compound; differentiated THP-1 cells, BzATP 250 uM; read-out: IL-1β % Inhib. @ 0.3 μM.
T1 construct: host or cells: THP-1 cells differentiated with LPS and IFN-γ
T1 sequence (Q99572 1-595): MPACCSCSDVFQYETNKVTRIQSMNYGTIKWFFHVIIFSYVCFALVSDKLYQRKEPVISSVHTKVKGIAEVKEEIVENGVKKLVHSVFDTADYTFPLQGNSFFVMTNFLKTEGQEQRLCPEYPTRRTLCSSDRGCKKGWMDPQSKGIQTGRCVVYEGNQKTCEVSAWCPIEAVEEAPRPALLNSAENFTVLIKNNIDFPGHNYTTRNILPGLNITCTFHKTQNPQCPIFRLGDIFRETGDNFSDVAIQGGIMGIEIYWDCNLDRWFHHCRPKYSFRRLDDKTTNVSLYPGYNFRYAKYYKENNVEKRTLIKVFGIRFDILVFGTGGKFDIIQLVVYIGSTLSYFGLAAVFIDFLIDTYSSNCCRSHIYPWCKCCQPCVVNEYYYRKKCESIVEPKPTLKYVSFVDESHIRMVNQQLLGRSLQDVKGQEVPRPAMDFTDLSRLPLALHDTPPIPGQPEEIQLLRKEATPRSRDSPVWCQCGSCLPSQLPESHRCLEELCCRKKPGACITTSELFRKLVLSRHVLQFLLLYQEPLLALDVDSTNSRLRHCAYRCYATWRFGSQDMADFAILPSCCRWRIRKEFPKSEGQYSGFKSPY
Assay type: cell-based
Description: The cells are then pretreated for 30 minutes with the compound of interest at the appropriate concentration in RPMI media containing 100 IU/mL penicillin, 100 ug/mL streptomycin. […] 30 uL of cell supernatant is then collected and IL-1β levels determined via ELISA (R&D systems Cat. # HSLB50) according to manufacturer's recommendations using the Tecan Safire plate reader. Background adjusted IL-1β levels of drug treated and non-treated cells are used to calculate the percent inhibition.
The compounds set forth in Table 1 were tested for activity in a cellular model as described herein.

Compound | inhibition at 0.3 µM [%]
C[C@H](C(N)=O)n1ccc2c(NC(=O)Cc3ccc(C(F)(F)F)cc3)c(Cl)ccc2c1=O [Compound 316, (R)-2-{6-Chloro-1-oxo-5-[2-(4-trifluoromethyl-phenyl)-acetylamino]-1H-isoquinolin-2-yl}-propionamide] | 51 to 75

Same assay, conditions: THP-1 cells differentiated with LPS and IFN-γ, 30 min pretreatment, BzATP 250 uM, IL-1β by ELISA

IC50 [nM] | Compound
13.4 | C[C@H](C(=O)Nc1cccc2c(=O)n([C@H](C)CO)ccc12)c1ccc(Cl)c(Cl)c1 [Compound 321]
113 | CC(C(=O)Nc1cccc2c(=O)n(C[C@@H]3CCCN3)ccc12)c1ccc(Cl)cc1 (stereo partly shown) [Compound 246]
24.8 | CC(C(=O)Nc1cccc2c(=O)n([C@H](C)C(N)=O)ccc12)c1ccc(F)cc1 (stereo partly shown) [Compound 299]
763 | NC(=O)[C@H](CO)n1ccc2c(NC(=O)Cc3ccc(Cl)c(Cl)c3)cccc2c1=O [Compound 253]
7.63 | C[C@H](C(N)=O)n1ccc2c(NC(=O)Cc3ccc(Cl)cc3F)cccc2c1=O [Compound 290]
13.6 | C[C@@H](C(N)=O)n1ccc2c(NC(=O)Cc3ccc(Cl)cc3F)cccc2c1=O [Compound 350]
46.5 | O=C(Cc1ccc(Cl)c(Cl)c1)Nc1cccc2c(=O)n(C[C@H]3CCCN3)ccc12 [Compound 245]
73.1 | C[C@H](C(N)=O)n1ccc2c(NC(=O)[C@H](C)c3ccc(Cl)cc3)cccc2c1=O [Compound 262]
58 | C[C@H](C(=O)Nc1cccc2c(=O)n([C@@H](C(N)=O)c3ccccc3)ccc12)c1ccc(Cl)c(Cl)c1 [Compound 278, (S)—N-[2-((R)-Carbamoyl-phenyl-methyl)-1-oxo-1,2-dihydro-isoquinolin-5-yl]-2-(3,4-dichloro-phenyl)-propionamide]
57.3 | CC(C(=O)Nc1cccc2c(=O)n(CCO)ccc12)c1ccc(Cl)c(C(F)(F)F)c1 (stereo not shown) [Compound 251]
317 | O=C(Cc1ccc(Cl)cc1)Nc1cccc2c(=O)n(CCO)ccc12 [Compound 4]
15.1 | NC(=O)[C@H](CO)n1ccc2c(NC(=O)Cc3ccc(Cl)c(C(F)(F)F)c3)cccc2c1=O [Compound 250, (S)-2-{5-[2-(4-Chloro-3-trifluoromethyl-phenyl)-acetylamino]-1-oxo-1H-isoquinolin-2-yl}-3-hydroxy-propionamide]
> 1000 | O=C(Cc1cc(C(F)(F)F)ccc1Cl)Nc1cccc2c(=O)n(CCO)ccc12 [Compound 67]
161 | O=C(Cc1ccc(C(F)(F)F)cc1C(F)(F)F)Nc1cccc2c(=O)n(CCO)ccc12 [Compound 230]
6.27 | C[C@@H](C(N)=O)n1ccc2c(NC(=O)Cc3ccc(Cl)cc3C(F)(F)F)cccc2c1=O [Compound 237, (S)-2-{5-[2-(4-Chloro-2-trifluoromethyl-phenyl)-acetylamino]-1-oxo-1H-isoquinolin-2-yl}-propionamide]
6.62 | C[C@H](C(N)=O)n1ccc2c(NC(=O)Cc3cccc(C(F)(F)F)c3F)cccc2c1=O [Compound 285]
> 1000 | C[C@H](C(N)=O)n1ccc2c(NC(=O)Cc3cccc(C#N)c3)cccc2c1=O [Compound 288]
9.7 | CC(C)[C@H](C(N)=O)n1ccc2c(NC(=O)[C@@H](C)c3ccc(Cl)cc3)cccc2c1=O [Compound 283]
21.6 | C[C@H](C(N)=O)n1ccc2c(NC(=O)Cc3cccc(Cl)c3)cccc2c1=O [Compound 255]
> 1000 | O=C(Cc1ccc(Cl)c(Cl)c1)Nc1c(Cl)ccc2c(=O)n(CCO)ccc12 [Compound 248]
> 1000 | CS(=O)(=O)c1ccc(CC(=O)Nc2cccc3c(=O)n(CCO)ccc23)cc1 [Compound 72]
395 | C[C@H](C(N)=O)n1ccc2c(NC(=O)Cc3ccc(Cl)cc3F)c(Cl)ccc2c1=O [Compound 343]
39 | O=C(Cc1ccc(Cl)c(C(F)(F)F)c1)Nc1cccc2c(=O)n(CC3CCNCC3)ccc12 [Compound 257, 2-(4-Chloro-3-trifluoromethyl-phenyl)-N-(1-oxo-2-piperidin-4-ylmethyl-1,2-dihydro-isoquinolin-5-yl)-acetamide]
3.57 | C[C@H](C(N)=O)n1ccc2c(NC(=O)Cc3ccc(F)c(Cl)c3)cccc2c1=O [Compound 301]
17.9 | C[C@H](C(N)=O)n1ccc2c(NC(=O)Cc3ccc(C(F)(F)F)cc3F)cccc2c1=O [Compound 296]
3.92 | C[C@H](C(=O)Nc1cccc2c(=O)n([C@H](C)C(N)=O)ccc12)c1ccc(Cl)c(Cl)c1 [Compound 268]
44.4 | C[C@H](C(N)=O)n1ccc2c(NC(=O)Cc3ccc(F)cc3F)cccc2c1=O [Compound 293]

IC50 [nM] | Compound
144 | CNCCn1ccc2c(NC(=O)Cc3ccc(Cl)c(Cl)c3)cccc2c1=O [Compound 234]
8.97 | C[C@H](C(N)=O)n1ccc2c(NC(=O)[C@H](C)c3ccc(Cl)c(Cl)c3)cccc2c1=O [Compound 269]
311 | O=C(Nc1cccc2c(=O)n(CCO)ccc12)c1ccc(C(F)(F)F)cc1C(F)(F)F [Compound 6]
22.2 | O=C(CCc1cc(C(F)(F)F)ccc1C(F)(F)F)Nc1cccc2c(=O)n(CCO)ccc12 [Compound 62]
70.6 | CNCCn1ccc2c(NC(=O)Cc3ccc(Cl)c(C(F)(F)F)c3)cccc2c1=O [Compound 235, 2-(4-Chloro-3-trifluoromethyl-phenyl)-N-[2-(2-methylamino-ethyl)-1-oxo-1,2-dihydro-isoquinolin-5-yl]-acetamide]
32.4 | C[C@H](C(N)=O)n1ccc2c(NC(=O)Cc3cc(F)c(F)c(F)c3)cccc2c1=O [Compound 381]
7.91 | C[C@H](C(N)=O)n1ccc2c(NC(=O)Cc3ccc(C(F)(F)F)cc3)cccc2c1=O [Compound 298]
221 | C[C@H](C(=O)Nc1cccc2c(=O)n(C(C(N)=O)c3ccc(Cl)cc3)ccc12)c1ccc(Cl)cc1 (stereo partly drawn) [Compound 315, (S)—N-{2-[Carbamoyl-(4-chloro-phenyl)-methyl]-1-oxo-1,2-dihydro-isoquinolin-5-yl}-2-(4-chloro-phenyl)-propionamide]
175 | CC(C)(CO)n1ccc2c(NC(=O)Cc3ccc(Cl)cc3F)cccc2c1=O [Compound 374]
41.1 | CC(C)(CO)n1ccc2c(NC(=O)Cc3ccc(C(F)(F)F)c(F)c3)cccc2c1=O [Compound 365]
572 | C[C@H](C(=O)Nc1cccc2c(=O)n([C@H](C)C(=O)O)ccc12)c1ccc(Cl)cc1 [Compound 322, (R)-2-{5-[(S)-2-(4-Chloro-phenyl)-propionylamino]-1-oxo-1H-isoquinolin-2-yl}-propionic acid]
49.8 | C[C@@H](CO)n1ccc2c(NC(=O)Cc3ccc(C(F)(F)F)c(F)c3)cccc2c1=O [Compound 336]
212 | O=C(Cc1ccc(Cl)cc1C(F)(F)F)Nc1cccc2c(=O)n(C(CO)CO)ccc12 [Compound 228]
9.54 | C[C@H](CO)n1ccc2c(NC(=O)[C@H](C)c3ccc(Cl)c(Cl)c3)cccc2c1=O [Compound 320]
134 | CC(C)(CO)n1ccc2c(NC(=O)Cc3ccc(C(F)(F)F)cc3F)cccc2c1=O [Compound 370]
9.31 | C[C@H](CO)n1ccc2c(NC(=O)Cc3ccc(C(F)(F)F)c(F)c3)cccc2c1=O [Compound 335]
48.9 | C[C@@H](C(N)=O)n1ccc2c(NC(=O)Cc3cccc(C(F)(F)F)c3F)cccc2c1=O [Compound 349]
32.7 | C[C@@H](C(N)=O)n1ccc2c(NC(=O)Cc3ccc(Cl)c(F)c3)cccc2c1=O [Compound 352]
> 1000 | COc1ccc(C(=O)Nc2cccc3c(=O)n(C(CO)CO)ccc23)c(OC)c1 [Compound 5]
9.92 | NCC(CCl)Cn1ccc2c(NC(=O)Cc3ccc(Cl)c(C(F)(F)F)c3)cccc2c1=O (stereo not shown) [Compound 258, N-[2-(3-Amino-2-chloromethyl-propyl)-1-oxo-1,2-dihydro-isoquinolin-5-yl]-2-(4-chloro-3-trifluoromethyl-phenyl)-acetamide]
60.3 | CC(C)(CO)n1ccc2c(NC(=O)Cc3cccc(C(F)(F)F)c3F)cccc2c1=O [Compound 368]
> 1000 | O=C(Cc1ccccc1)Nc1cccc2c(=O)n(CCO)ccc12 [Compound 76]
25.3 | CC(C(=O)Nc1cccc2c(=O)n([C@H](C)C(N)=O)ccc12)c1ccc(Cl)c(Cl)c1 (stereo partly shown) [Compound 254]
6.91 | CC(C)[C@H](C(N)=O)n1ccc2c(NC(=O)[C@H](C)c3ccc(Cl)cc3)cccc2c1=O [Compound 284, (R)-2-{5-[(R)-2-(4-Chloro-phenyl)-propionylamino]-1-oxo-1H-isoquinolin-2-yl}-3-methyl-butyramide]
391 | O=C(Cc1ccc(C(F)(F)F)cc1C(F)(F)F)Nc1cccc2c(=O)n(C(CO)CO)ccc12 [Compound 233]
34.4 | C[C@H](C(N)=O)n1ccc2c(NC(=O)Cc3ccc(Cl)cc3)cccc2c1=O [Compound 256]

Compound | IC50 [nM]
C[C@H](C(N)=O)n1ccc2c(NC(=O)Cc3ccc(C(F)(F)F)cc3)c(Cl)ccc2c1=O [Compound 316, (R)-2-{6-Chloro-1-oxo-5-[2-(4-trifluoromethyl-phenyl)-acetylamino]-1H-isoquinolin-2-yl}-propionamide] | 2.29
